Test results: patent publication US20030012732A1, “Feeding assay for identifying nematicidal compounds” (priority 1999, published 2003)

Legend:
C. elegans [1] = assay: Feeding assay: ingestion of fluorescent microsphere beads (pharyngeal pumping), read by fluorimetry / fluorescence microscopy; format: in vivo, C. elegans of the Bristol N2 strain
Method: 1. C. elegans of the Bristol N2 strain (Brenner, S. 1974. The genetics of Caenorhabditis elegans. Genetics 77: 71-94) were cultured at room temperature on HMS174 E. coli bacteria (Campbell, J. L., Richardson, C., and Studier, F. W. 1978. Genetic recombination and complementation between bacteriophage T7 and cloned fragments of T7 DNA. Proc. Natl. Acad. Sci. USA. 75: 2276-2280) spread on a 150 mm diameter petri dish containing enhanced NGM 3% (w/v) (Avery, L., and Horvitz, H. R. 1990. Effects of starvation and neuroactive drugs on feeding in Caenorhabditis elegans. J. Exp. Zool. 253: 263-270) agar until a good population of adult nematodes was present, but food reserves had not been exhausted. (Nematodes may be mass cultured in suspension if required).
2. The nematodes were collected by washing with 10 mL and then 5 mL of […] and filtering over a 20 μm nylon mesh (Nytal—Catalogue no. BCNY-HD002-20) to retain adult nematodes.
3. Adult nematodes were collected from the mesh using a pasteur pipette and allowed to settle in an eppendorf tube at 1 g for 10 minutes. This packed volume was used to calculate quantities of nematodes for experiments and assays, although nematodes were resuspended in 2-10 volumes of M9 buffer for transfer. Quantitative transfers of nematodes were performed using a Gilson Pipetman P200 or equivalent and a yellow tip with 5 mm cut off the sharp end.
4. 96-well mesh-bottomed plates were blocked prior to performing the assay in order to minimise non-specific adherence of fluorescent microsphere beads. To block, 200 μL of a 0.1% (w/v) suspension of dark blue-dyed, non-fluorescent microsphere beads with a mean diameter of 0.95 μm and a hydrophilic surface coating (Catalogue code DC03B, carboxylate-modified polystyrene/polyvinyl copolymer) (manufactured and supplied by Bangs Laboratories, Inc. 9025 Technology Drive. Fishers, Ind. 46038-2886, USA) were added to the plate and incubated overnight at room temperature with orbital shaking at 70 r.p.m. Prior to the assay, the bead suspension was removed under vacuum using a Millipore Multiscreen manifold. The plate was washed three times by pipetting 200 μL of M9 buffer into each well, allowing the plate to sit for 5 minutes and then sucking off the suspension.
5. The assay was either set up in the wells of a solid-bottomed 24-well plate using a final assay volume in the range of 0.5 to 1.0 mL or it was set up in the wells of a 96-well mesh bottomed plate (Millipore Multiscreen N20 plates, custom order no. SE3R090M6). In the latter case, the final assay volume was always 100 μL. The assay buffer in all cases was M9. The added volume of a stock of M9 and the added volume of double-distilled water were adjusted so as to achieve a final concentration of 1×M9 in the desired assay volume. A sufficient volume of a suspension of nematodes was added to the assay wells to give a final percentage in the range of 2.5% to 15% (v/v) depending on the experiment. A stock solution of the drug or test compound (e.g. serotonin) was added to the wells of the plate to give the desired final concentration. A sufficient volume of a suspension of fluorescent microsphere beads in double-distilled water was added to give a final concentration in the range of 0.025% to 0.1% (w/v) depending on the experiment.
6. The fluorescent beads were 1.30 μm uniformly dyed microsphere beads with a hydrophilic surface-coating. The fluorescence excitation maximum was 420 nm and the emission maximum was 485 nm (catalogue code FC04F, carboxylate-modified polystyrene/polyvinyl copolymer, manufactured and supplied by Bangs Laboratories, Inc. 9025 Technology Drive, Fishers, Ind. 46038-2886, USA).
7. The assay plate was placed on an orbital shaker at 70 r.p.m. at room temperature and incubated for up to 180 minutes (normally 60 minutes), under subdued illumination.
8. At the end of the incubation 20 μL of 100 mM sodium azide was added to the wells of the 96-well mesh plate. […]

C. elegans [2] = assay: Videotaping nematodes under Nomarski interference microscopy (pharyngeal pumping rate); format: in vivo; conditions: at the doses of FIG. 3, separate experiments (not shown)

NCCc1c[nH]c2ccc(O)cc12 [serotonin]
effect of high concentration on signal (bead ingestion) (C. elegans [1]; 5 mM serotonin, 60 minutes, FIG. 3): suboptimal
signal over control (C. elegans [1]; 10 μL packed volume of adult nematodes (1,600-1,800 nematodes), two hour incubation, gain setting of 30): 6246 arbitrary fluorescence intensity units
microsphere beads contained in strongly labelled nematodes (C. elegans [1]; estimated, high magnification examination): at least several hundred microsphere beads
effect on microsphere bead ingestion when present during the incubation (C. elegans [1]; in vivo): increased microsphere bead ingestion
average number of microsphere beads ingested by nematodes more than a control nematode (C. elegans [1]; later experiments, optimised conditions): ≤ 2,400 microsphere beads
signal strength over control relative to the earlier experiment (C. elegans [1]; later experiments, optimised conditions, same volume of nematodes): approximately 6 times greater
treated nematodes that had ingested one or more microsphere beads (C. elegans [1]; other experiments under similar conditions to FIG. 1, high magnification examination): approximately 80%
microsphere beads ingested on average per serotonin-treated nematode more than a control nematode (C. elegans [1]; same experiment, two hour incubation): 417 microsphere beads
effect on pharyngeal pumping rate (C. elegans [2]): directly affects pharyngeal pumping rate
